According to patent US8940885B2, “Cytotoxic nucleotides for targeted therapeutics” (Wake Forest University Health Sciences, priority 2006, dated 2015):

Tests used:
[1] = UV thermal melt (hyperchromicity); type: physicochemical
Procedure: The structural characteristics of the parent aptamer and modified aptamers were determined using circular dichroism (CD) spectroscopy and ultraviolet (UV) hyperchromicity measurements. The data for the CD spectroscopy are shown in FIGS. 4A (modified aptamer) and 4B (parent aptamer). The circular dichroism curve acquired before thermal melting is in blue and that obtained post-melt is green. A maximum positive ellipticity is observed at 270 nm consistent with a highly folded structure, probably consisting of A-form helices. The circular dichroism spectra for the modified aptamers are indistinguishable from circular dichroism spectra for the parent aptamer. The UV thermal melt data is shown in FIGS. 4C (modified aptamer) and 4D (parent aptamer). The melting temperature for parent aptamer and the modified aptamers is about 55° C.

[2] = target: T1, extracellular domain of PSMA (xPSM) (Homo sapiens, UniProt Q04609); conditions: cited from earlier work
T1 construct: express the 706 amino acids comprising the extracellular domain of PSMA from Sf-9 (insect) cells using baculovirus; made in house; host or cells: Sf-9 insect cells, baculovirus (pBacGus3 vector); cDNA from LNCaP cells

[3] = system: PC3 cells; assay: Cytotoxicity of FdUMP[10], laboratory studies and NCI 60 cell line screen; type: cell-based, human
[4] = system: PC3 prostate cancer cells
[5] = system: DU145 PC cells; assay: Cytotoxicity of FdUMP[10], laboratory studies and NCI 60 cell line screen; type: cell-based
[6] = system: colon cancer cells; assay: Uptake of FdUMP[10] multimer in other cancer cells; type: cell-based; conditions: other types of cancer cells (e.g. colon cancer)
[7] = system: DU145 prostate cancer cells
[8] = system: PC cells and normal prostatic epithelial cells; assay: Trypan blue exclusion assays; type: cell-based, human
Procedure: The cytotoxicity of the candidate modified aptamers is also evaluated with regard to prostate cells that have been obtained from normal prostate tissue derived from radical prostatectomies. A procedure for establishing primary human epithelial cell cultures from the disease-free regions of the tissue (based on histology) has been described (Peehl et al., In Vitro Cell Dev. Biol. 22: 90 (1986); Peehl et al., In Vitro Cell Dev. Biol. 24: 530-536 (1988); Barreto et al., Cancer Epidemiol. Biomarkers Prey. 9: 265-270 (2000). The cultures are grown in MCDB 105 medium (Sigma, St. Louis, Mo.) that has been supplemented with growth factors and hormones as described previously (Peehl et al., In Vitro Cell Dev Biol 22: 90 (1986)). Trypan blue exclusion is used as a marker of viable cells. The data are analyzed to identify those candidate modified aptamers sequences that are highly efficient at killing PC cells that express xPSM, but that are not cytotoxic towards normal prostate cells. Candidate modified aptamers that display the greatest differential cytotoxicity are further developed as drugs for the treatment of human PC.
(but not 5FU) is currently under investigation.

[9] = system: prostate cancer cells
[10] = system: prostate cancer cells; remark: listed apart in the source
[11] = system: LNCaP cells; assay: Cytotoxicity of FdUMP[10], laboratory studies and NCI 60 cell line screen; type: cell-based, human

T1 sequence (Q04609 44-750 limits assumed): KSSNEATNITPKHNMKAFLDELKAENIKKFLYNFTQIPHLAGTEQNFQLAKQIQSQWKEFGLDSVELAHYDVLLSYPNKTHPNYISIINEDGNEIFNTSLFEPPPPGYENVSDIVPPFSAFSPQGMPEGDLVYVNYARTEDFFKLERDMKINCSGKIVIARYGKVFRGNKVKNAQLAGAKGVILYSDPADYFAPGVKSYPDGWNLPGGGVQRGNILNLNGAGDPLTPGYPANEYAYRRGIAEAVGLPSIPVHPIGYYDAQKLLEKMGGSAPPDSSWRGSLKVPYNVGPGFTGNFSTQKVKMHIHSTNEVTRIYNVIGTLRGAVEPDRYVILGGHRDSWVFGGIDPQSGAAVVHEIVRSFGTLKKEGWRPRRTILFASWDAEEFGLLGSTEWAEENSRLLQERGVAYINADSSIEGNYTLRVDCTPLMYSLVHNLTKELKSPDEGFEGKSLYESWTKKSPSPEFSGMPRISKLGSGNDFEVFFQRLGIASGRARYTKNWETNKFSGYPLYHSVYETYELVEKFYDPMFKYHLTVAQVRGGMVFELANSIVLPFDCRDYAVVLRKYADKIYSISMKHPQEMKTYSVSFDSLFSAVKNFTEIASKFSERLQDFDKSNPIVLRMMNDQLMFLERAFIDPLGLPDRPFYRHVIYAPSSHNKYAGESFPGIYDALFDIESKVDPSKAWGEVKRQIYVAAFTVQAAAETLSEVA

5′rGGGAGGACGAUGCGGAUCAGCCAUGUUUACGUCAC UCCUUGUCAAUCCUCAUCGGC-3′ (GGGAGGACGAUGCGGAUCAGCCAUGUUUACGUCACUCCUUGUCAAUCCUCAUCGGC; RNA, backbone not given here) [A10-3]
stability of folded structure ([1]; 37° C.): stable at 37 °C
melting temperature ([1]; UV thermal melt): about 55 °C
binding affinity for xPSM [2]: high affinity

FdUMP[10]
sensitivity of PC3 cells [3]: highly sensitive
times more potent than 5FU ([3]; PC3 cells): 631 times
cytotoxicity relative to monomeric fluoropyrimidines (5FU, FdU, FdUMP) [4]: substantially more cytotoxic
times more potent than 5FU ([5]; DU145 PC cells): 1,585 time
GI50 ([5]; DU145 cells, GI50 value from the NCI 60 cell line screen, read-out: IC50 (the source's name)): 5.01 nM
tolerability in vivo: very well-tolerated
uptake of multimer relative to prostate cancer cells [6]: less efficient
cytotoxicity relative to monomeric fluoropyrimidines (5FU, FdU, FdUMP) [7]: substantially more cytotoxic
differential sensitivity between PC cells and normal prostatic epithelial cells [8]: large differential sensitivity
cytotoxicity relative to 5FU or FdU [9]: substantially more cytotoxic
drug concentrations at which cytotoxic towards prostate cancer cells [9]: 10 to 100 nM
effect of phosphatase or nucleotidase inhibitor on cytotoxicity [10]: Neither inhibitor substantially reduced the cytotoxicity
uptake in multimeric form ([10]; prostate cancer cells): efficiently take up
sensitivity of LNCaP cells [11]: highly sensitive
